The data set addresses HSD17B13. The settings on record: ASO, HepaRG.

After the bases stand the sugars from the 5' end (letter, count) and the backbone: PS all phosphorothioate, else s phosphorothioate and o phosphodiester by linkage. Methylation of C is not given here. e = 2'-O-(2-methoxyethyl) (MOE); k = constrained ethyl (cEt); d = 2'-deoxy (DNA); m = 2'-O-methyl

Consider GCCAGGGAATGCTCAT (sugars k3 d10 k3, PS), for which, under “1 µM”, the target mRNA inhibition came to 38%.
Same read-out and setting: with TGTGGCATGGCTACAG (sugars k3 d10 k3, PS) the figure was 24%; with TTTAGTATTTGGGTGT (sugars k3 d10 k3, PS), 21%.
The same measure, in the same setting: under “AAACATCTCTGGGACC (sugars k3 d9 k3 e1, PS)” stands 48%.
Turning to CCAACTATGTAATAGG (sugars k3 d10 k3, PS), the target mRNA inhibition (1 µM) was determined as 68%.
On the same count and under the same terms, under TGCGAGAAATCTAAGA (sugars k3 d10 k3, PS) stands 50%; under GCCATAATCTGTGATT (sugars k3 d10 k3, PS), 0%.
The same measure, in the same setting: with GTTTAGCTGATAGGCT (sugars k3 d10 k3, PS) the figure was 47%; with AGAGTTATCTGGTTTG (sugars k3 d10 k3, PS), 56%; with “TTAAACCTTCCCTGTG (sugars k3 d9 k3 e1, PS)”, 18%.
For the sequence AACCATAGGACATGGA (sugars k3 d10 k3, PS), for the setting “1 µM”, the target mRNA inhibition came out at 71%.
Same read-out and setting: under CAATTTATCATACCAC (sugars k3 d10 k3, PS) stands 37%; under “TGTGATTGAGTTCTCC (sugars k3 d9 k3 e1, PS)”, 52%.
On the same count and under the same terms, with AGTCGGATTATTTTTT (sugars k3 d10 k3, PS) the figure was 42%; with “AAATAGAGTCGGTCAC (sugars k3 d1 m1 d8 k3, PS)”, 63%; with TGCCAGGGAATGCTCA (sugars k3 d10 k3, PS), 23%.
Still for that read-out and setting: under “AGAATAGAGTTGCACC (sugars k3 d9 k3 e1, PS)” stands 58%; under CACTGATTTAGTTGGT (sugars k3 d10 k3, PS), 66%.
For the setting “1 µM”, GCATTATTCACCACGA (sugars k3 d10 k3, PS) registered a target mRNA inhibition of 59%.
On the same count and under the same terms, under TAGCAATTTAGCAAGA (sugars k3 d10 k3, PS) stands 54%; under “TTTAAAATAGAGTCGG (sugars k3 d9 k3 e1, PS)”, 58%.
The same measure, in the same setting: with GCAGAGACATGAGGTT (sugars k3 d10 k3, PS) the figure was 55%.
In the case of GTTTTCGGCACTCAGC (sugars k3 d10 k3, PS), where the note is “1 µM”, the target mRNA inhibition was 51%.
Same read-out and setting: under CACTGTGACGATGTGG (sugars k3 d10 k3, PS) stands 10%.
With AGAGGATAGTCCATGC (sugars k3 d10 k3, PS), the target mRNA inhibition by setting is: (0.02 µM) 12%; (0.078 µM) 19%; (0.313 µM) 51%; (1 µM) 74%; (1.25 µM) 73%; (5 µM) 97%.
For the sequence ACCCAGTATTCACAAA (sugars k3 d10 k3, PS), the target mRNA inhibition (1 µM) came to 10%.
Same read-out and setting: under CAGCAAAGTTTGGGCA (sugars k3 d10 k3, PS) stands 37%; under “TTGCAGAAATTCACCT (sugars kkdddddddddkekek, PS)”, 46%; under ATAAGAAGAGAGCTCA (sugars k3 d10 k3, PS), 14%.
Still for that read-out and setting: under “CTTAAGATACCCAGGT (sugars kkdddddddddkekek, PS)” stands 34%.
On the same count and under the same terms, under ATCTTAAGATACCCAG (sugars k3 d10 k3, PS) stands 70%; under “ACGGTGATCAAATGTA (sugars kkdddddddddkekek, PS)”, 33%.
With AGCTACCTCCAAATTC (sugars k3 d10 k3, PS), for the setting “1 µM”, the target mRNA inhibition was 0%.
Still for that read-out and setting: with ATTTATTTGCTGGTCC (sugars k3 d10 k3, PS) the figure was 47%.
In turn, TGGTGGACTTCAGAGT (sugars k3 d10 k3, PS) displayed a target mRNA inhibition (1 µM) of 17%.
Regarding CTGCTGAAACTTGATC (sugars k3 d10 k3, PS), the target mRNA inhibition (1 µM) worked out at 50%.
The sequence “ACAATATGGGATGAGG (sugars k3 d9 k3 e1, PS)” gave a target mRNA inhibition (0.02 µM) of 0%; a target mRNA inhibition (0.078 µM) of 0%; a target mRNA inhibition (0.313 µM) of 0%; a target mRNA inhibition (1 µM) of 76%; a target mRNA inhibition (1.25 µM) of 39%; a target mRNA inhibition (5 µM) of 55%.
Turning to ACAGAGGAGTTTGCAG (sugars k3 d10 k3, PS), the target mRNA inhibition (1 µM) was found to be 37%.
Still for that read-out and setting: with “TCTCUTGACAATGGTT (sugars k3 d1 m1 d8 k3, PS)” the figure was 62%.
The same measure, in the same setting: under TGTCCAGAAGTATGTG (sugars k3 d10 k3, PS) stands 0%.
Same read-out and setting: with CTACAAGAGGTTATTT (sugars k3 d10 k3, PS) the figure was 31%.
As for TTTTTGGACAAATGCC (sugars k3 d10 k3, PS), the target mRNA inhibition (1 µM) worked out at 50%.
Same read-out and setting: under GACAGTAGATTTGGTA (sugars k3 d10 k3, PS) stands 34%; under GCATTAAAACTCTCAT (sugars k3 d10 k3, PS), 35%; under TAGTCCTAGGGAGGAG (sugars k3 d10 k3, PS), 68%.
Same read-out and setting: with GCTTAAATGTTTAACC (sugars k3 d10 k3, PS) the figure was 67%; with TTAGAGAGCGATAGAT (sugars k3 d10 k3, PS), 23%.
Consider CTTATACTGAAGGCTG (sugars k3 d10 k3, PS), for which the target mRNA inhibition (1 µM) worked out at 48%.
On the same count and under the same terms, with GGAGTATGACAACTGG (sugars k3 d10 k3, PS) the figure was 28%; with AAACAAGAGGATAGTC (sugars k3 d10 k3, PS), 48%.
As to ATCTCTGGGACCAAGG (sugars k3 d10 k3, PS), the target mRNA inhibition is, setting by setting: (0.02 µM) 0%; (0.078 µM) 0%; (0.313 µM) 57%; (1 µM) 72%; (1.25 µM) 78%; (5 µM) 93%.
For the sequence GATATGTCAATACTCC (sugars k3 d10 k3, PS), the target mRNA inhibition (1 µM) was found to be 59%.
Turning to “TCCATAATAATAGCTC (sugars kkdddddddddkekek, PS)”, the target mRNA inhibition (1 µM) was 41%.
Take ACATATACAGACTAAG (sugars k3 d10 k3, PS): the target mRNA inhibition (1 µM) was 46%.
Same read-out and setting: under AACTAGGAAGTGATCC (sugars k3 d10 k3, PS) stands 58%; under TAATTGCATCTGCTCG (sugars k3 d10 k3, PS), 46%.
Same read-out and setting: under TCCGGTAAGAATTTCG (sugars k3 d10 k3, PS) stands 63%.
As to “TGGAATGCTACTTGAA (sugars k3 d1 m1 d8 k3, PS)”, the target mRNA inhibition runs as follows: (0.02 µM) 13%; (0.078 µM) 27%; (0.313 µM) 35%; (1 µM) 79%; (1.25 µM) 66%; (5 µM) 91%.
Turning to TACTGTCCCAGCATTA (sugars k3 d10 k3, PS), the target mRNA inhibition (1 µM) was found to be 21%.
As to GGTAAGTATTCCATCT (sugars k3 d10 k3, PS), the target mRNA inhibition (1 µM) worked out at 12%.
Still for that read-out and setting: under “ATAACTACAAGAGGTT (sugars kkdddddddddkekek, PS)” stands 46%.

For the origin of these results see the OligoGym collection.
